Here are results for nine molecules from US10647664B2, “Substituted hydroxamic acid compounds” (Duke University, priority 2013, dated 2020).

In brackets after ≈: the same amount, converted by molar mass. A value given as a limit tells only on which side of the number the result lay.

Test [1] deals with wild-type E. coli (W3110). The experiment in a line: Minimum inhibitory concentration (MIC), E. coli W3110. Format: cell-based. The note with it: LB medium, 5% DMSO, 22 hours at 37° C., MTT; for MIC: Escherichia coli, 22 h.
Test [2] relates to F. novicida U112 (FNU112). The experiment in a line: microbe, parasite or virus in culture. Format: cell-based. The note with it: Francisella tularensis, read-out: MIC FNU112, F. novicida U112.
In test [3] the test system is P. aeruginosa PA01. The test is described as follows: MIC, P. aeruginosa PA01. The note with it: Pseudomonas aeruginosa. Format: cell-based.
Test [4] relates to N. gonorrhoeae 35/02 (drug-resistant strain). To be noted: N. gonorrhoeae strain 35/02; description of the strain's resistance; cited from earlier work.
For test [5], the system named is S. typhimurium (LT2). The test is described as follows: MIC, S. typhimurium (LT2). In kind it is cell-based. Here is the method: (§1) MICs are determined according to the NCCLS protocol using 96-well plates. Briefly, diluted bacterial cells (10^6 cells/mL) are added into each well of the 96-well plates containing LB medium with 5% DMSO and various concentrations of the compound of disclosure. After incubation of the plates for 22 hours at 37° C., [4,5-dimethylthiazol-2-yl]-2,5-diphenyltetrazolium bromide solution (MTT) is added (final concentration, 0.2 mg/mL) and incubated at 37° C. for another 3 hrs. MIC is determined as the lowest concentration of an antibiotic that prevented color change (yellow to purple).
(§2) Additional results of minimum inhibitory concentrations (MICs) using V. cholera (P4), S. typhimurium (LT2), and K. pneumonia (43816) are shown in Table 2

Test [6] relates to V. cholera (P4). The test is described as follows: MIC, V. cholera (P4). Format: cell-based. On the set-up: unit not given beside the values. Here is the method: as §1, §2
In test [7] the test system is K. pneumonia (43816). The experiment in a line: MIC, K. pneumonia (43816). In kind it is cell-based. The protocol:
as §1, §2

For `C[C@@](O)(C(F)F)[C@H](NC(=O)c1ccc(C#Cc2ccc(CN3CCNCC3)cc2)cc1)C(=O)NO` [Example 19], the MIC in test [1] was above 1 µg/mL; in test [2], 2.5 µg/mL (≈ 5.14 µM); in test [3] (PA01), above 5 µg/mL.

Consider `C[C@@](O)(C(F)F)[C@H](NC(=O)c1ccc(C#CC#CCN2CCOCC2)cc1)C(=O)NO` [Example 21, N-((2S,3S)-4,4-difluoro-3-hydroxy-1-(hydroxyamino)-3-methyl-1-oxobutan-2-yl)-4-(5-morpholinopenta-1,3-diyn-1-yl)benzamide], for which the MIC in test [1] was 0.46 µg/mL (≈ 1.06 µM); in test [2], above 5 µg/mL; in test [3] (PA01) it was 1.56 µg/mL (≈ 3.58 µM).

Turning to `CO/N=C(\C(=O)N[C@@H]1C(=O)N2C(C(=O)O)=C(CSc3nc(=O)c(=O)[nH]n3C)CS[C@H]12)c1csc(N)n1` [ceftriaxone], the MIC in test [4] was 0.12 µg/mL (≈ 0.216 µM).

Regarding `CC(CCn1ccc(C#Cc2ccccc2)cc1=O)(C(=O)NO)S(C)(=O)=O` (centres unmarked) [Example 30, N-hydroxy-2-methyl-2-(methylsulfonyl)-4-(2-oxo-4-(phenylethynyl)pyridin-1 (2H)-yl)butanamide], the MIC in test [1] and in test [3] (PA01) was below 0.78 µg/mL each time.

For the molecule `C[C@@](O)(C(F)F)[C@H](NCCCc1ccc(C#Cc2ccccc2)cc1)C(=O)NO` [Example 3, (2S,3S)-4,4-difluoro-N,3-dihydroxy-3-methyl-2-((3-(4-(phenylethynyl)phenyl)propyl)amino)butanamide], the MIC in test [1] turned out to be 1.6 µg/mL (≈ 3.98 µM).

With `CC(C#CC#Cc1ccc(C(=O)N[C@H](C(=O)NO)[C@](C)(O)C(F)F)cc1)N1CCOCC1` (stereo partly drawn) [Example 22, N-((2S,3S)-4,4-difluoro-3-hydroxy-1-(hydroxyamino)-3-methyl-1-oxobutan-2-yl)-4-(5-morpholinohexa-1,3-diyn-1-yl)benzamide], the MIC in test [1] was above 1 µg/mL; in test [2], above 5 µg/mL; in test [3] (PA01), 5 µg/mL (≈ 11.1 µM).

In the case of `CC(NC(=O)c1ccc(C#Cc2ccc(CN3CCOCC3)cc2)cc1)(C(=O)NO)C(C)(O)C(F)F` (centres unmarked) [Example 2, N-(4,4-difluoro-3-hydroxy-1-(hydroxyamino)-2,3-dimethyl-1-oxobutan-2-yl)-4-((4-(morpholinomethyl)phenyl)ethynyl)benzamide], the MIC in test [1] worked out at 6.25 µg/mL (≈ 12.5 µM); in test [2], 50 µg/mL (≈ 99.7 µM).

For penicillin, the MIC in test [4] was 6 µg/mL.

On to `C[C@@H](O)[C@](C)(NC(=O)c1ccc(C#CC#Cc2ccc(N)cc2)cc1)C(=O)NO` [Example 1, 4-((4-aminophenyl)buta-1,3-diynyl)-N-(3-hydroxy-1-(hydroxyamino)-2-methyl-1-oxobutan-2-yl)benzamide], for which the MIC is 0.18 µg/mL (≈ 0.46 µM) in test [1]; 15 µg/mL (≈ 38.3 µM) in test [3] (PA01); 6.25 µg/mL (≈ 16 µM) in test [3] (PA01, P. aeruginosa PA01). Also, the “MIC E. coli W3110” value in test [1] amounted to 0.13 µg/mL (≈ 0.332 µM). The “MIC S. typhimurium (LT2)” value in test [5] came to 0.144. For the same molecule, the “MIC V. cholera (P4)” value in test [6] worked out at 0.03. The “MIC K. pneumonia (43816)” value in test [7] stood at 0.6.
